pIC50: −log10 of the molar value. Values after ≈ are worked out from the molar mass of the structure shown.
Tests used:
OVCAR-3 = assay: Cytotoxicity against human OVCAR-3 cells treated for 72 hrs; format: functional, cell-based; conditions: OVCAR-3, 72 h
MDA-MB-435 = assay: Cytotoxicity against human MDA-MB-435 cells treated for 72 hrs; format: functional, cell-based; conditions: MDA-MB-435, 72 h
[1] = Lipophilicity, logD of compound at pH 7.4; format: physicochemical; conditions: buffer
[2] = Relative solubility of compound by measuring ratio of solubility of compound to solubility of Eupenifeldin; format: physicochemical
[3] = Aqueous solubility of compound; format: physicochemical; conditions: buffer

Row | Structure (SMILES) | pIC50 (OVCAR-3) | pIC50 (MDA-MB-435) | logD ([1]; read-out: logD) | Ratio [2] | solubility [3] | logD [1]
1 | CC(=O)O[C@H]1C(=O)[C@@]2(C)[C@H]([C@H](OC(=O)c3ccccc3)[C@]3(O)C[C@H](OC(=O)[C@H](O)[C@@H](NC(=O)c4ccccc4)c4ccccc4)C(C)=C1C3(C)C)[C@]1(OC(C)=O)CO[C@@H]1C[C@@H]2O [PACLITAXEL] | 10.00 |  |  |  |  | 
2 | CC(=O)Oc1cc2c(ccc1=O)C[C@H]1CC(C)(C)/C=C/C[C@]3(C)Oc4cc(OC(C)=O)c(=O)cc(C)c4C[C@H]3C[C@H](O)[C@@]1(C)O2 | < 6.60 | 7.28 | 4.6 | 0.1 |  | 
3 | Cc1cc(=O)c(OC(=O)C(C)(C)C)cc2c1C[C@H]1C[C@H](O)[C@@]3(C)Oc4cc(OC(=O)C(C)(C)C)c(=O)ccc4C[C@H]3CC(C)(C)/C=C/C[C@]1(C)O2 | 6.85 | 7.10 | 6.9 | 6 10^-3No_unit |  | 
4 | Cc1cc(=O)c(O)cc2c1C[C@H]1C[C@H](OC(=O)CCC(=O)O)[C@@]3(C)Oc4cc(O)c(=O)ccc4C[C@H]3CC(C)(C)/C=C/C[C@]1(C)O2 | 6.80 | 6.36 | 1 | 40 | 66.3 µg/mL (≈ 104 µM) | 
5 | Cc1cc(=O)c(OC(=O)N(c2ccccc2)c2ccccc2)cc2c1C[C@H]1C[C@H](O)[C@@]3(C)Oc4cc(OC(=O)N(c5ccccc5)c5ccccc5)c(=O)ccc4C[C@H]3CC(C)(C)/C=C/C[C@]1(C)O2 | 6.64 | < 6.60 |  |  |  | 9.8
6 | Cc1cc(=O)c(OCc2ccccc2)cc2c1C[C@H]1C[C@H](O)[C@@]3(C)Oc4cc(OCc5ccccc5)c(=O)ccc4C[C@H]3CC(C)(C)/C=C/C[C@]1(C)O2 | < 6.60 | 7.01 | 7.5 | 2 10^-4No_unit |  | 
7 | COCCOC(=O)Oc1cc2c(ccc1=O)C[C@H]1CC(C)(C)/C=C/C[C@]3(C)Oc4cc(OC(=O)OCCOC)c(=O)cc(C)c4C[C@H]3C[C@H](O)[C@@]1(C)O2 | < 6.60 | 7.00 | 4.6 | 0.2 |  | 
8 | Cc1cc(=O)c(OC(=O)C2CC2)cc2c1C[C@H]1C[C@H](O)[C@@]3(C)Oc4cc(OC(=O)C5CC5)c(=O)ccc4C[C@H]3CC(C)(C)/C=C/C[C@]1(C)O2 | < 6.60 | 7.11 | 5.3 | 5 10^-3No_unit |  | 
9 | CCN(CC)C(=O)Oc1cc2c(ccc1=O)C[C@H]1CC(C)(C)/C=C/C[C@]3(C)Oc4cc(OC(=O)N(CC)CC)c(=O)cc(C)c4C[C@H]3C[C@H](O)[C@@]1(C)O2 | 6.72 | < 6.60 | 5.9 | 2 10^-2No_unit |  | 
10 | COCCOC(=O)Oc1cc2c(c(C)cc1=O)C[C@H]1C[C@H](O)[C@@]3(C)Oc4cc(O)c(=O)ccc4C[C@H]3CC(C)(C)/C=C/C[C@]1(C)O2 | 7.12 | 7.51 | 4.3 | 0.4 |  | 
11 | CC(=O)Oc1cc2c(ccc1=O)C[C@H]1CC(C)(C)/C=C/C[C@]3(C)Oc4cc(OC(C)=O)c(=O)cc(C)c4C[C@H]3C[C@H](OC(C)=O)[C@@]1(C)O2 | 6.71 | 7.14 | 5.5 | 4 10^-2No_unit |  | 

From ChEMBL document CHEMBL5584257, “Semisynthetic derivatives of the fungal metabolite eupenifeldin via targeting the tropolone hydroxy groups” (Bioorg Med Chem Lett, 2024)
